Legend:
human MER (528-end) = human MER (528-end) (Homo sapiens (Human), UniProt Q12866); experiment: HTRF Kinase Activity Biochemical Assay (KinEASE-TK); settings: 10 uM ATP
How it was run: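 Activity read-out is the HTRF ratio (665 nm over 620 nm emission, ×10,000; excitation 340 nm) after 1 h detection with 0.375 nM Eu3+-cryptate anti-TK antibody plus 0.062 uM SA-XL665. Preceding kinase step: human MER (528-end), biotinylated TK substrate, 1 h, room temperature.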

[1] = molecular target: BCR fusion to kinase domain of MerTK (Ba/F3-MerTK) (Homo sapiens, UniProt Q12866); experiment: In Cell TAM Kinase Assay Using BaF3 Cellular System; assay type: cell-based, murine; settings: Ba/F3 BCR-kinase fusion proliferation, 72 hours, Cell Titer Glo; kinase not given; read-out: IC50
Sequence of BCR fusion to kinase domain of MerTK (Ba/F3-MerTK) (Q12866 21-999 limits assumed, change not shown): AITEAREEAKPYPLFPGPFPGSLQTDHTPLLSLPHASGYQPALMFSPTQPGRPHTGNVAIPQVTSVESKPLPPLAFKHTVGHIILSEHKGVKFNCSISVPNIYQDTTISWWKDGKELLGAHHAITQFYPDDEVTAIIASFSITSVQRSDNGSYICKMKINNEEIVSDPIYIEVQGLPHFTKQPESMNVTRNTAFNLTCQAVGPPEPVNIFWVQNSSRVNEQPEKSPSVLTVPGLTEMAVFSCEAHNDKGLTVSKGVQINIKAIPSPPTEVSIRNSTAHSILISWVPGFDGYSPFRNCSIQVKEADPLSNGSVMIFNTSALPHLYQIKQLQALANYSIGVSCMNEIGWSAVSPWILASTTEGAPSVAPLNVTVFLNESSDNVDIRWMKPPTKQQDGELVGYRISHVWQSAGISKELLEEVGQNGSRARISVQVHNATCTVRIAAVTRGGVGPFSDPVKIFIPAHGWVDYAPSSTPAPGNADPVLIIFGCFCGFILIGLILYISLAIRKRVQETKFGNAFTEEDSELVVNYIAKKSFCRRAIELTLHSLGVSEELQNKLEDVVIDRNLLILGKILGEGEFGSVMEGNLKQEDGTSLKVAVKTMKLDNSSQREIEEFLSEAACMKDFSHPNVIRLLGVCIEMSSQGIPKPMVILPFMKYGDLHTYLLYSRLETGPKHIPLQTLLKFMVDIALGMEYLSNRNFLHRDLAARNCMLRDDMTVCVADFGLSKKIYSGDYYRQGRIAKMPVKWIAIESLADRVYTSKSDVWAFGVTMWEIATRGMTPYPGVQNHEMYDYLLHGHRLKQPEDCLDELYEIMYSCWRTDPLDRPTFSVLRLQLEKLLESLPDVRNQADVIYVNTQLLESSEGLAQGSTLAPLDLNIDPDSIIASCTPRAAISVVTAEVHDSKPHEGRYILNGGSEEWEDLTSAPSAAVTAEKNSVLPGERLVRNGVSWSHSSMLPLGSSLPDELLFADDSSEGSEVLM
How it was run: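 Ba/F3 murine pro-B cells expressing BCR–MerTK kinase-domain fusion (IL-3 independent), seeded at 1,000 cells/well onto compound and grown 72 h. Viability read by CellTiter-Glo 2.0 luminescence after 30 min at room temperature.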

Sequence of human MER (528-end) (Q12866 528-999 limits assumed): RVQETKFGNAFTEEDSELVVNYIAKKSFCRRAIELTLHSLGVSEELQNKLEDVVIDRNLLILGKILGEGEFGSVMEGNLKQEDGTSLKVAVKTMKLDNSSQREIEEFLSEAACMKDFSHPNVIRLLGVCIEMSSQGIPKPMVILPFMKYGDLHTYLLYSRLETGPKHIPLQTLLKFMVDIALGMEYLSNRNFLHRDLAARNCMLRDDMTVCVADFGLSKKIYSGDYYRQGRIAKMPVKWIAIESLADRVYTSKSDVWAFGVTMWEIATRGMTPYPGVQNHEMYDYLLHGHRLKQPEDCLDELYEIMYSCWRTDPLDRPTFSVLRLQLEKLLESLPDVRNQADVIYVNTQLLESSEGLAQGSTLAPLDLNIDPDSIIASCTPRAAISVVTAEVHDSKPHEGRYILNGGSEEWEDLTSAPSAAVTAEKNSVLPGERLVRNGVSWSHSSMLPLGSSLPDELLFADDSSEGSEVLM

IC50 (human MER (528-end))	IC50 [1]	Compound
10 to 100 nM	> 1000 nM	Nc1ncc(-c2ccc(N3CCOCC3)nc2)cc1C(=O)N[C@@H]1CCN(C(=O)c2ccc(-c3ccc(F)cc3Cl)cc2)C1 [Example 584, (R)-6-amino-N-(1-(2′-chloro-4′-fluoro-[1,1′-biphenyl]-4-carbonyl)pyrrolidin-3-yl)-6′-morpholino-[3,3′-bipyridine]-5-carboxamide]
100 to 1000 nM	500 to 1000 nM	CC(C)c1cccc(-c2ccc(C(=O)N3CC[C@@H](NC(=O)c4cc(-c5cnn(C)c5)cnc4N)C3)cc2)c1 [Example 658, (R)-2-amino-N-(1-(3′-isopropyl-[1,1′-biphenyl]-4-carbonyl)pyrrolidin-3-yl)-5-(1-methyl-1H-pyrazol-4-yl)nicotinamide]
100 to 1000 nM	> 1000 nM	CN1CCC(Cc2ccc(-c3ccc(C(=O)N4CC[C@@H](NC(=O)c5cc(-c6cnn(C)c6)cnc5N)C4)cc3)cc2)CC1 [Example 643, (R)-2-amino-5-(1-methyl-1H-pyrazol-4-yl)-N-(1-(4′-((1-methylpiperidin-4-yl)methyl)-[1,1′-biphenyl]-4-carbonyl)pyrrolidin-3-yl)nicotinamide]
10 to 100 nM	500 to 1000 nM	Cn1cc(-c2cnc(N)c(C(=O)N[C@@H]3CCN(C(=O)c4ccc(-c5ccc(Oc6ccnc(Cl)c6)cc5)cc4)C3)c2)cn1 [Example 795, (R)-2-amino-N-(1-(4′-((2-chloropyridin-4-yl)oxy)-[1,1′-biphenyl]-4-carbonyl)pyrrolidin-3-yl)-5-(1-methyl-1H-pyrazol-4-yl)nicotinamide]
10 to 100 nM	> 1000 nM	Cn1cc(-c2cnc(N)c(C(=O)N[C@@H]3CCN(C(=O)c4ccc(-c5ccc(CC6CCN(CCO)CC6)cc5)cc4)C3)c2)cn1 [Example 819, (R)-2-amino-N-(1-(4′-((1-(2-hydroxyethyl)piperidin-4-yl)methyl)-[1,1′-biphenyl]-4-carbonyl)pyrrolidin-3-yl)-5-(1-methyl-1H-pyrazol-4-yl)nicotinamide]
10 to 100 nM	> 1000 nM	Cn1cc(-c2cnc(N)c(C(=O)N[C@@H]3CCN(C(=O)c4ccc(-c5ccc(Cl)s5)cc4)C3)c2)cn1 [Example 534, (R)-2-amino-N-(1-(4-(5-chlorothiophen-2-yl)benzoyl)pyrrolidin-3-yl)-5-(1-methyl-1H-pyrazol-4-yl)nicotinamide]
10 to 100 nM	> 1000 nM	Cc1ccc(-c2ccc(C(=O)N3CC[C@@H](NC(=O)c4cc(-c5cnn(C)c5)cnc4N)C3)cc2)s1 [Example 526, (R)-2-amino-5-(1-methyl-1H-pyrazol-4-yl)-N-(1-(4-(5-methylthiophen-2-yl)benzoyl)pyrrolidin-3-yl)nicotinamide]
> 1000 nM	> 1000 nM	CN1CC=C(c2ccc(C(=O)N3CC[C@@H](NC(=O)c4cc(-c5cnn(C)c5)cnc4N)C3)cc2)CC1 [Example 754, (R)-2-amino-N-(1-(4-(1-methyl-1,2,3,6-tetrahydropyridin-4-yl)benzoyl)pyrrolidin-3-yl)-5-(1-methyl-1H-pyrazol-4-yl)nicotinamide]
> 1000 nM	> 1000 nM	Cn1cc(-c2cnc(N)c(C(=O)N[C@@H]3CCN(C(=O)c4ccc(-c5ccc(O)nc5)cc4)C3)c2)cn1 [Example 749, (R)-2-amino-N-(1-(4-(6-hydroxypyridin-3-yl)benzoyl)pyrrolidin-3-yl)-5-(1-methyl-1H-pyrazol-4-yl)nicotinamide]
10 to 100 nM	> 1000 nM	Cn1cc(-c2cnc(N)c(C(=O)N[C@@H]3CCN(C(=O)c4ccc(-c5ccc6ccccc6c5)cc4)C3)c2)cn1 [Example 750, (R)-2-amino-5-(1-methyl-1H-pyrazol-4-yl)-N-(1-(4-(naphthalen-2-yl)benzoyl)pyrrolidin-3-yl)nicotinamide]

The next lines start with the molecule.

Compound	IC50 (human MER (528-end))	IC50 [1]
Cn1cc(-c2cnc(N)c(C(=O)N[C@@H]3CCN(C(=O)c4ccc5cc(NC6CCN(CCO)CC6)ccc5c4)C3)c2)cn1 [Example 817, (R)-2-amino-N-(1-(6-((1-(2-hydroxyethyl)piperidin-4-yl)amino)-2-naphthoyl)pyrrolidin-3-yl)-5-(1-methyl-1H-pyrazol-4-yl)nicotinamide]	100 to 1000 nM	> 1000 nM
Cn1cc(-c2cnc(N)c(C(=O)N[C@@H]3CCN(C(=O)c4ccc(-c5cccc(-c6nnn[nH]6)c5)cc4)C3)c2)cn1 [Example 713, (R)—N-(1-(3′-(1H-tetrazol-5-yl)-[1,1′-biphenyl]-4-carbonyl)pyrrolidin-3-yl)-2-amino-5-(1-methyl-1H-pyrazol-4-yl)nicotinamide]	100 to 1000 nM	> 1000 nM
CN(c1ccc(-c2ccc(C(=O)N3CC[C@@H](NC(=O)c4cc(-c5cnn(C)c5)cnc4N)C3)cc2)cc1)c1ccc([N+](=O)[O-])cc1 [Example 803, (R)-2-amino-N-(1-(4′-(methyl(4-nitrophenyl)amino)-[1,1′-biphenyl]-4-carbonyl)pyrrolidin-3-yl)-5-(1-methyl-1H-pyrazol-4-yl)nicotinamide]	100 to 1000 nM	> 1000 nM
Cn1cc(-c2cnc(N)c(C(=O)N[C@@H]3CCN(C(=O)C(=O)c4ccccc4)C3)c2)cn1 [Example 546, (R)-2-amino-5-(1-methyl-1H-pyrazol-4-yl)-N-(1-(2-oxo-2-phenylacetyl)pyrrolidin-3-yl)nicotinamide]	> 1000 nM	> 1000 nM
Cn1cc(-c2cnc(N)c(C(=O)N[C@@H]3CCN(C(=O)c4ccc(OCc5cccc(N)c5)cc4)C3)c2)cn1 [Example 838, (R)-2-amino-N-(1-(4-((3-aminobenzyl)oxy)benzoyl)pyrrolidin-3-yl)-5-(1-methyl-1H-pyrazol-4-yl)nicotinamide]	100 to 1000 nM	> 1000 nM
Cn1cc(-c2cnc(N)c(C(=O)N[C@@H]3CCN(C(=O)c4ccc5cc(OCCN6CCCC6)ccc5c4)C3)c2)cn1 [Example 765, (R)-2-amino-5-(1-methyl-1H-pyrazol-4-yl)-N-(1-(6-(2-(pyrrolidin-1-yl)ethoxy)-2-naphthoyl)pyrrolidin-3-yl)nicotinamide]	100 to 1000 nM	> 1000 nM
Cn1cc(-c2cnc(N)c(C(=O)NC[C@@H]3CCCN3C(=O)c3ccc(-c4ccccc4)cc3)c2)cn1 [Example 734, (S)—N-((1-([1,1′-biphenyl]-4-carbonyl)pyrrolidin-2-yl)methyl)-2-amino-5-(1-methyl-1H-pyrazol-4-yl)nicotinamide]	> 1000 nM	> 1000 nM
Cn1cc(-c2cnc(N)c(C(=O)N[C@@H]3CCN(C(=O)c4ccc(Oc5ccc(N)cc5)cc4)C3)c2)cn1 [Example 832, (R)-2-amino-N-(1-(4-(4-aminophenoxy)benzoyl)pyrrolidin-3-yl)-5-(1-methyl-1H-pyrazol-4-yl)nicotinamide]	> 1000 nM	> 1000 nM
Cn1cc(-c2cnc(N)c(C(=O)N[C@@H]3CCN(C(=O)c4ccc(C5=CCNCC5)cc4)C3)c2)cn1 [Example 753, (R)-2-amino-5-(1-methyl-1H-pyrazol-4-yl)-N-(1-(4-(1,2,3,6-tetrahydropyridin-4-yl)benzoyl)pyrrolidin-3-yl)nicotinamide]	> 1000 nM	> 1000 nM
Cn1cc(-c2cnc(N)c(C(=O)N[C@@H]3CCN(C(=O)c4cc5c(C(F)(F)F)ccc(Cl)c5n4C)C3)c2)cn1 [Example 703, (R)-2-amino-N-(1-(7-chloro-1-methyl-4-(trifluoromethyl)-1H-indole-2-carbonyl)pyrrolidin-3-yl)-5-(1-methyl-1H-pyrazol-4-yl)nicotinamide]	> 1000 nM	> 1000 nM
Cn1cc(-c2cnc(N)c(C(=O)N[C@@H]3CCN(C(=O)c4ccc(OCc5cccc([N+](=O)[O-])c5)cc4)C3)c2)cn1 [Example 770, (R)-2-amino-5-(1-methyl-1H-pyrazol-4-yl)-N-(1-(4-((3-nitrobenzyl)oxy)benzoyl)pyrrolidin-3-yl)nicotinamide]	100 to 1000 nM	> 1000 nM
CN(C)C(=O)c1ccc(Oc2ccc(-c3ccc(C(=O)N4CC[C@@H](NC(=O)c5cc(-c6cnn(C)c6)cnc5N)C4)cc3)cc2)cc1 [Example 787, (R)-2-amino-N-(1-(4′-(4-(dimethylcarbamoyl)phenoxy)-[1,1′-biphenyl]-4-carbonyl)pyrrolidin-3-yl)-5-(1-methyl-1H-pyrazol-4-yl)nicotinamide]	10 to 100 nM	> 1000 nM
Cc1[nH]c2cc(C(=O)N3CC[C@@H](NC(=O)c4cc(-c5cnn(C)c5)cnc4N)C3)ccc2c1C [Example 698, (R)-2-amino-N-(1-(2,3-dimethyl-1H-indole-6-carbonyl)pyrrolidin-3-yl)-5-(1-methyl-1H-pyrazol-4-yl)nicotinamide]	100 to 1000 nM	> 1000 nM
Cn1cc(-c2cnc(N)c(C(=O)N[C@@H]3CCN(C(=O)OC4CCCC(c5ccccc5)C4)C3)c2)cn1 (stereo partly drawn) [Example 129, 3-phenylcyclohexyl (3R)-3-(2-amino-5-(1-methyl-1H-pyrazol-4-yl)nicotinamido)pyrrolidine-1-carboxylate]	> 1000 nM	100 to 500 nM
Cn1cc(-c2cnc(N)c(C(=O)N[C@@H]3CCN(C(=O)c4ccc(-c5ccc(Oc6ccc(CN)cc6)cc5)cc4)C3)c2)cn1 [Example 634, (R)-2-amino-N-(1-(4′-(4-(aminomethyl)phenoxy)-[1,1′-biphenyl]-4-carbonyl)pyrrolidin-3-yl)-5-(1-methyl-1H-pyrazol-4-yl)nicotinamide]	< 10 nM	500 to 1000 nM
CN(c1ccc2cc(C(=O)N3CC[C@@H](NC(=O)c4cc(-c5cnn(C)c5)cnc4N)C3)ccc2c1)C1CCN(CCO)CC1 [Example 820, (R)-2-amino-N-(1-(6-((1-(2-hydroxyethyl)piperidin-4-yl)(methyl)amino)-2-naphthoyl)pyrrolidin-3-yl)-5-(1-methyl-1H-pyrazol-4-yl)nicotinamide]	10 to 100 nM	100 to 500 nM

— patent US12378224B2 (Dong-A Socio Holdings Co., Ltd., priority 2016, dated 2025)
